Drawing on US10252997B2, “Monocyclic compound” (Takeda Pharmaceutical Company Limited, priority 2015, dated 2019), this text covers inhibition for 19 compounds.

One experiment has as its system HCT116 cells. The experiment in a line: Growth inhibitory activity on HCT116 cell (CellTiter-Glo). It is filed as cell-based. The settings on record: Homo sapiens, HCT-116, 72 h; test compound 1 μM, 3 days; read-out: HCT116 cell proliferation inhibitory rate (%) at 1 μM. The method, then:
The growth inhibitory activity of the compound on HCT116 cell was evaluated by the following method.
HCT116 cells were seeded in a 384 well blackplate at 900 cells/[…]/well, and maintained in an assay medium (RPMI medium (Wako) containing 2% fetal bovine serum, 50 Unit/mL penicillin and […] streptomycin (Invitrogen)). The next day, a test compound dissolved in dimethyl sulfoxide (DMSO) was diluted with the assay medium, and the obtained compound solution was added by […] to each well of a plate containing HCT116 cells, and incubated at 37° C., 5% CO2 (test compound addition group).
A similar reaction was performed without adding a test compound (test compound non-addition group).
Furthermore, a similar reaction was performed under the conditions without adding HCT116 cell and a test compound (control group).
After 3 days, […] of a CellTiter-Glo reagent (Promega KK) was added to the well, and the mixture was stirred for 10 min. Thereafter, the luminescence value of each well was measured by the EnVision™ multilabel counter (Perkin Elmer Inc.).
The HCT116 cell proliferation inhibitory rate (%) of the test compound was determined by the following calculation formula. (1−(luminescence of test compound addition group−luminescence of control group)÷(luminescence of test compound non-addition group−luminescence of control group))×100
The HCT116 cell proliferation inhibitory rates (%) of the test compound (1 μM) are shown below.
For orientation: In ATP-based viability assays light output follows the ATP content of the culture.

Another experiment has as its target T1, Human ACC1 (Homo sapiens, UniProt Q13085).
T1 construct: His6 (from vector pFAST-BacHTc; purified on Ni-NTA) (N); made in house; host or cells: SF-9 insect cells, recombinant baculovirus BAC-ACC1
Put plainly: Measurement of ACC1 inhibitory activity (Malonyl-CoA produced, RapidFire-mass spectrometry). It is filed as biochemical. The settings on record: 10 μM of the test compound; read-out: ACC1 inhibitory rate (%) at 10 μM. The protocol: (1) Cloning of Human ACC1 Gene and Preparation of Recombinant Baculovirus
Human ACC1 gene was cloned by PCR using a human liver cDNA library (Clontech) as a template and Primer 1 and Primer 2 shown below. Primer 1 and Primer 2 were prepared by adding SalI, NotI restriction enzyme recognition sequences based on the information of the base sequence of human ACC1 gene (Genbank Accession U19822).
PCR was performed using Pyrobest DNA polymerase (TAKARA BIO INC.). The obtained PCR product was cloned to pT7 Blue vector (Novagen) and after confirmation of the base sequence, digested with restriction enzymes SalI and […]. The obtained DNA fragment was inserted into pFAST-BacHTc (Invitrogen) digested with restriction enzymes SalI and […] to give expression plasmid ACC1/pFAST-BacHTc.
Using the expression plasmid ACC1/pFAST-BacHTc and BAC-TO-BAC Baculovirus Expression System (Invitrogen), virus stock BAC-ACC1 of recombinant Baculovirus was prepared.
(2) Preparation of ACC1 Protein
SF-9 cells (Invitrogen) were inoculated to a medium (10 L) for insect cells (Sf-900IISFM medium (Invitrogen) containing 5% fetal bovine serum (Trace), 50 mg/L Gentamicin (Wako Pure Chemical Industries, Ltd.) and 0.1% Pluronic F-68 (Invitrogen)) at 1.0×10^6 cells/mL, and cultured with shaking in Wave Bioreactor (GE Healthcare) at 27° C., 20 rpm, rocking angle 100, oxygen concentration 30%.
On day 2 of the culture, recombinant Baculovirus BAC-ACC1 was added, and the cells were cultured for 3 days. The culture medium was centrifuged at 4000×g for 10 min to give virus-infected cells. The cells were washed with phosphate buffered saline (Invitrogen) and centrifuged under the same conditions. The obtained cells were cryopreserved at −80° C.
The cryopreserved cells were thawed in ice, and suspended in 800 mL of 25 mM HEPES buffer (pH 7.5) containing 10% Glycerol, 0.3 M NaCl, 1 mM EDTA, 25 mM Sodium β-Glycerophosphate and 1 mM Sodium Orthovanadate, and supplemented with Complete Protease Inhibitor (Roche). The obtained suspension was homogenized two times in a polytron homogenizer (Kinematica) at 20,000 rpm for 20 sec. The obtained cell disruption solution was clarified by centrifugation at 186,000×g for 60 min, and the supernatant was passed through Ni-NTA Superflow Cartridges (5 mL) (QUIAGEN). Furthermore, it was washed with 25 mM HEPES buffer (pH 7.5) containing 20 mM Imidazole and 0.3 M NaCl, and eluted with 25 mM HEPES buffer (pH 7.5) containing 250 mM Imidazol and 0.3 M NaCl. The eluate was concentrated by Amicon Ultra-15 (Nihon Millipore K.K.) having a fraction molecular weight of 50K. The obtained concentrate was subjected to gel filtration with 50 mM HEPES buffer (pH 7.5) containing 10 mM MgCl2, 2 mM dithiothreitol, 10 mM tripotassium citrate and 0.3 M NaCl by using HiLoad 26/60 Superdex200 prep grade gel filtration column (GE Healthcare) to give ACC1. The obtained ACC1 was cryopreserved at −80° C.
(3) Measurement of ACC1 Inhibitory Activity
ACC1 obtained in the above-mentioned (2) was diluted with an enzyme reaction buffer (50 mM HEPES (pH 7.5), 10 mM MgCl2, 10 mM Tripottasium Citrate, 2 mM Dithiothreitol, 0.001% Fatty acid free BSA) to a concentration of 0.2 μg/ml, and the mixture was added to each well of a 384 well assay plate by 10 μl. A test compound dissolved in dimethyl sulfoxide (DMSO) was diluted with an enzyme reaction buffer, and the resulting solution (5 μl) was added to each well. The mixture was incubated at room temperature for 60 min. Then, a substrate solution (50 mM KHCO3, 200 μM ATP, 200 μM Acetyl-CoA, 5 μl) was added to each well, and the mixture was reacted at room temperature for 30 min. The reaction was quenched by adding a reaction quenching liquid (1.3% formic acid, 0.2 μM Malonyl-^13C3-CoA) by 60 μL each to the obtained reaction mixtures (test compound addition group).
In addition, a reaction was performed in the same manner as above and without adding the test compound (test compound non-addition group). […]

As for `CC(=O)NC(C)c1cnc(OCc2c(F)cc(Oc3cccc(OCC4CC4)c3)cc2F)c(F)c1` (centres unmarked) [Example 73, N-(1-(6-((4-(3-(cyclopropylmethoxy)phenoxy)-2,6-difluorobenzyl)oxy)-5-fluoropyridin-3-yl)ethyl)acetamide], the inhibition at 1 µM in the experiment on HCT116 cells was 31%. Moreover, the inhibition at 10 µM at Human ACC1 stood at 98%.
As for `CC(=O)NC(C)CC(=O)c1cnc(-c2ccc(Oc3cccc(OCC4CC4)c3)nc2)o1` (centres unmarked) [Example 105, N-(4-(2-(6-(3-(cyclopropylmethoxy)phenoxy)pyridin-3-yl)-1,3-oxazol-5-yl)-4-oxobutan-2-yl)acetamide], the inhibition at 10 µM at Human ACC1 came out at 100%.
Same read-out and setting: the result for `CC(=O)NC(C)c1cnc(OCc2ccc(Oc3cccc(OCC4CC4)c3)cc2F)cn1` (centres unmarked) [Example 35, N-(1-(5-((4-(3-(cyclopropylmethoxy)phenoxy)-2-fluorobenzyl)oxy)pyrazin-2-yl)ethyl)acetamide] reads 78%.
On to `CC(=O)NC(C)c1ccc(OCc2ccc(Oc3cccc(OCC4CC4)c3)cc2F)nc1` (centres unmarked) [Example 42, N-(1-(6-((4-(3-(cyclopropylmethoxy)phenoxy)-2-fluorobenzyl)oxy)pyridin-3-yl)ethyl)acetamide], for which the inhibition at 1 µM with HCT116 cells worked out at 10%. Besides, at Human ACC1, the inhibition at 10 µM came to 85%.
Taken in the same sequence, the figures for `CC(=O)N[C@@H](C)COc1cc(-c2ccc(Oc3cccc(OCC4CC4)c3)cc2)no1` [Example 67, N-((2S)-1-((3-(4-(3-(cyclopropylmethoxy)phenoxy)phenyl)-1,2-oxazol-5-yl)oxy)propan-2-yl)acetamide] were 29% and 92%.
As to `CC(=O)NC(C)c1cnc(OCc2c(F)cc(Oc3cccc(OCC4CC4)c3)cc2F)cn1` (centres unmarked) [Example 43, N-(1-(5-((4-(3-(cyclopropylmethoxy)phenoxy)-2,6-difluorobenzyl)oxy)pyrazin-2-yl)ethyl)acetamide], the inhibition at 10 µM on Human ACC1 worked out at 94%.
For `CC(=O)NC(C)CCc1cc(-c2ccc(Oc3cccc(OCC4CC4)c3)cc2)no1` (centres unmarked) [Example 46, N-(4-(3-(4-(3-(cyclopropylmethoxy)phenoxy)phenyl)-1,2-oxazol-5-yl)butan-2-yl)acetamide], in the experiment on HCT116 cells, the inhibition at 1 µM turned out to be 20%. In addition, the inhibition at 10 µM at Human ACC1 is 95%.
Consider `C[C@@H](COc1cnc(-c2ccc(Oc3cccc(OCC4CC4)c3)nc2)o1)NC(N)=O` [Example 101, 1-((2S)-1-((2-(6-(3-(cyclopropylmethoxy)phenoxy)pyridin-3-yl)-1,3-oxazol-5-yl)oxy)propan-2-yl)urea], for which, at Human ACC1, the inhibition at 10 µM was 98%.
The same measure, in the same setting: for `CC(=O)NC(C)CC(=O)c1cnn(-c2ccc(Oc3cccc(OCC4CC4)c3)nc2)c1` (centres unmarked) [Example 103, N-(4-(1-(6-(3-(cyclopropylmethoxy)phenoxy)pyridin-3-yl)-1H-pyrazol-4-yl)-4-oxobutan-2-yl)acetamide] the value was 98%.
In the case of `CC(=O)NC(C)CC(=O)c1cnc(-c2ccc(Oc3cccc(OCC4CC4)c3)cc2)o1` (centres unmarked) [Example 64, N-(4-(2-(4-(3-(cyclopropylmethoxy)phenoxy)phenyl)-1,3-oxazol-5-yl)-4-oxobutan-2-yl)acetamide], the inhibition at 1 µM in the experiment with HCT116 cells worked out at 35%. Further, the inhibition at 10 µM at Human ACC1 came to 99%.
Taken in the same sequence, the figures for `CC(=O)NC(C)CCc1coc(-c2ccc(Oc3cccc(OCC4CC4)c3)cc2)n1` (centres unmarked) [Example 83, N-(4-(2-(4-(3-(cyclopropylmethoxy)phenoxy)phenyl)-1,3-oxazol-4-yl)butan-2-yl)acetamide] were 28% and 97%.
`C[C@@H](COc1cnc(-c2ccc(Oc3cccc(OCC4CC4)c3)cn2)o1)NC(N)=O` [Example 104, 1-((2S)-1-((2-(5-(3-(cyclopropylmethoxy)phenoxy)pyridin-2-yl)-1,3-oxazol-5-yl)oxy)propan-2-yl)urea]: at Human ACC1, the inhibition at 10 µM amounted to 95%.
Turning to `CC(=O)NC(C)c1ccc(OCc2c(F)cc(Oc3cccc(OCC4CC4)c3)cc2F)cc1` (centres unmarked) [Example 39, N-(1-(4-((4-(3-(cyclopropylmethoxy)phenoxy)-2,6-difluorobenzyl)oxy)phenyl)ethyl)acetamide], in the experiment with HCT116 cells, the inhibition at 1 µM came to 26%. Moreover, the inhibition at 10 µM at Human ACC1 is 82%.
Taken in the same sequence, the figures for `CC(=O)NC(C)c1ccc(OCc2c(F)cc(Oc3cccc(OCC4CC4)c3)cc2F)cn1` (centres unmarked) [Example 69, N-(1-(5-((4-(3-(cyclopropylmethoxy)phenoxy)-2,6-difluorobenzyl)oxy)pyridin-2-yl)ethyl)acetamide] were 28% and 96%.
For `CC(=O)NC(C)CCc1cnc(-c2ccc(Oc3cccc(OCC4CC4)c3)cc2)o1` (centres unmarked) [Example 32, N-(4-(2-(4-(3-(cyclopropylmethoxy)phenoxy)phenyl)-1,3-oxazol-5-yl)butan-2-yl)acetamide], the inhibition at 1 µM with HCT116 cells was 30%. Also, the inhibition at 10 µM on Human ACC1 came to 97%.
The like results for `CC(=O)NC(C)c1ccc(OCc2c(F)cc(Oc3cccc(OCC4CC4)c3)cc2F)nc1` (centres unmarked) [Example 68, N-(1-(6-((4-(3-(cyclopropylmethoxy)phenoxy)-2,6-difluorobenzyl)oxy)pyridin-3-yl)ethyl)acetamide] were, in that order, 25% and 96%.
For `CC(=O)N[C@@H](C)COc1cnc(-c2ccc(Oc3cccc(OCC4CC4)c3)nc2)o1` [Example 99, N-((2S)-1-((2-(6-(3-(cyclopropylmethoxy)phenoxy)pyridin-3-yl)-1,3-oxazol-5-yl)oxy)propan-2-yl)acetamide], the inhibition at 10 µM at Human ACC1 turned out to be 100%.
Regarding `CC(=O)N[C@@H](C)COc1cnc(-c2ccc(Oc3cccc(OCC4CC4)c3)cn2)o1` [Example 102, N-((2S)-1-((2-(5-(3-(cyclopropylmethoxy)phenoxy)pyridin-2-yl)-1,3-oxazol-5-yl)oxy)propan-2-yl)acetamide], on Human ACC1, the inhibition at 10 µM worked out at 100%.
In the case of `CC(=O)N[C@@H](C)COc1cnc(-c2cnc(Oc3cccc(OCC4CC4)c3)cc2C)o1` [Example 106, N-((2S)-1-((2-(6-(3-(cyclopropylmethoxy)phenoxy)-4-methylpyridin-3-yl)-1,3-oxazol-5-yl)oxy)propan-2-yl)acetamide], the inhibition at 10 µM at Human ACC1 was determined as 98%.
